≈ marks a conversion by molar mass, not a printed value. Read-outs that look alike come from different tables or passages of the source.
Legend:
[1] = tested on: Staph.Aureus; assay: Minimal bactericidal activity (MBC) in milk, field isolates; format: cell-based; details: Staphylococcus aureus, in milk at pH 7.2 - 7.4
From the text: (§1) The activity of some of said nitrofuryl quinolines derivatives against Strep.uberis and Stap.Aureus in milk has been compared with the activity of some of the compounds so far utilised in the treatment of bovine mastitis. The results are shown in Table I. (The nitrofuryl quinoline derivatives have general formula [drawing 1] the meaning of R, A, R', B, Y, X and Z being given in the Table. R1 =O whenever indicated then the N-oxide is concerned; NF stands for nitrofuryl)
(§2) Minimal Bactericidal/Activity (MBC) of representative Nitrofuryl
(§3) in mcg/ml in milk at pH 7.2 - 7.4. Versus Standards (Field

[2] = tested on: Strep.uberis; assay: as above; format: cell-based; details: Streptococcus uberis, in milk at pH 7.2 - 7.4
From the text: as §1, §2, §3

[3] = field isolate 2337, read-out: Minimal Bactericidal Activity (MBC), Staph.Aureus 2337
[4] = field isolate 2372, read-out: Minimal Bactericidal Activity (MBC), Staph.Aureus 2372
[5] = field isolate 60B, read-out: Minimal Bactericidal Activity (MBC), Strep.uberis 60B
[6] = field isolate 127A, read-out: Minimal Bactericidal Activity (MBC), Strep.uberis 127A

Row | SMILES | MBC [1, 3] | MBC [1, 4] | MBC [2, 5] | MBC [2, 6]
1 | O=C(N[C@H](CO)[C@H](O)c1ccc([N+](=O)[O-])cc1)C(Cl)Cl [Chloramphenicol, reference compound] | > 50 µg/mL | > 50 µg/mL | 50 µg/mL (≈ 155 µM) | > 400 µg/mL
2 | O=C(O)c1cc(-c2ccc([N+](=O)[O-])o2)c2ccccc2n1 [Compound 2, 4-(5-nitrofuryl)-quinaldinic acid] | 1 µg/mL (≈ 3.52 µM) | 0.5 µg/mL (≈ 1.76 µM) | 0.12 µg/mL (≈ 0.422 µM) | 1 µg/mL (≈ 3.52 µM)
3 | O=[N+]([O-])c1ccc(-c2ccc3ccccc3n2)o1 [Compound 3] | > 10 µg/mL | > 10 µg/mL | > 10 µg/mL | > 10 µg/mL
4 | Cc1cc(-c2ccc([N+](=O)[O-])o2)[n+]([O-])c2ccccc12 [Compound 4] | 10 µg/mL (≈ 37 µM) | > 10 µg/mL | > 10 µg/mL | > 10 µg/mL
5 | Cc1cc(-c2ccc([N+](=O)[O-])o2)c2ccccc2n1 [Compound 5] | > 10 µg/mL | > 10 µg/mL | 10 µg/mL (≈ 39.3 µM) | 10 µg/mL (≈ 39.3 µM)
6 | Cc1cc(-c2ccc([N+](=O)[O-])o2)c2ccccc2[n+]1[O-] [Compound 6] | 5 µg/mL (≈ 18.5 µM) | 5 µg/mL (≈ 18.5 µM) | 5 µg/mL (≈ 18.5 µM) | 5 µg/mL (≈ 18.5 µM)
7 | CCc1ccc2nc(C)cc(-c3ccc([N+](=O)[O-])o3)c2c1 [Compound 7] | > 10 µg/mL | > 10 µg/mL | > 10 µg/mL | > 10 µg/mL
8 | CC(=O)Oc1ccc2c(-c3ccc([N+](=O)[O-])o3)cc(C)nc2c1 [Compound 8] | 5 µg/mL (≈ 16 µM) | 5 µg/mL (≈ 16 µM) | 0.25 µg/mL (≈ 0.801 µM) | 10 µg/mL (≈ 32 µM)
9 | COc1ccc2c(-c3ccc([N+](=O)[O-])o3)cc(C)nc2c1 [Compound 9] | 5 µg/mL (≈ 17.6 µM) | 5 µg/mL (≈ 17.6 µM) | 10 µg/mL (≈ 35.2 µM) | 5 µg/mL (≈ 17.6 µM)
10 | CCc1cccc2c(-c3ccc([N+](=O)[O-])o3)cc(C)nc12 [Compound 10] | > 10 µg/mL | > 10 µg/mL | > 10 µg/mL | > 10 µg/mL
11 | O=[N+]([O-])c1ccc(-c2ccnc3ccccc23)o1 [Compound 11] | > 10 µg/mL | > 10 µg/mL | 10 µg/mL (≈ 41.6 µM) | > 10 µg/mL
12 | CCc1cc(-c2ccc([N+](=O)[O-])o2)c2cc(C)ccc2n1 [Compound 12] | > 10 µg/mL | > 10 µg/mL | > 10 µg/mL | > 10 µg/mL
13 | O=[N+]([O-])c1ccc(-c2cc(CO)nc3ccccc23)o1 [Compound 13] | 10 µg/mL (≈ 37 µM) | 5 µg/mL (≈ 18.5 µM) | 5 µg/mL (≈ 18.5 µM) | > 10 µg/mL
14 | O=[N+]([O-])c1ccc(-c2cc(C(Br)(Br)Br)nc3ccccc23)o1 [Compound 14] | 10 µg/mL (≈ 20.4 µM) | > 10 µg/mL | 5 µg/mL (≈ 10.2 µM) | 5 µg/mL (≈ 10.2 µM)
15 | O=[N+]([O-])c1ccc(-c2cc(C=NO)nc3ccccc23)o1 [Compound 15] | 1 µg/mL (≈ 3.53 µM) | 1 µg/mL (≈ 3.53 µM) | 1 µg/mL (≈ 3.53 µM) | 1 µg/mL (≈ 3.53 µM)
16 | CCOc1ccc2c(-c3ccc([N+](=O)[O-])o3)cc(C(=O)O)nc2c1 [Compound 17] | 1 µg/mL (≈ 3.05 µM) | 0.5 µg/mL (≈ 1.52 µM) | 0.03 µg/mL (≈ 0.0914 µM) | 1 µg/mL (≈ 3.05 µM)
17 | O=C(c1cc(-c2ccc([N+](=O)[O-])o2)c2ccccc2n1)N1CCOCC1 [Compound 18] | > 10 µg/mL | 10 µg/mL (≈ 28.3 µM) | 5 µg/mL (≈ 14.2 µM) | > 10 µg/mL
18 | CCc1ccc2c(c1)c(-c1ccc([N+](=O)[O-])o1)cc(C)[n+]2[O-] [Compound 20] | 5 µg/mL (≈ 16.8 µM) | 5 µg/mL (≈ 16.8 µM) | > 10 µg/mL | > 10 µg/mL
19 | Cc1ccc2c(-c3ccc([N+](=O)[O-])o3)cc(C)[n+]([O-])c2c1 [Compound 21] | 5 µg/mL (≈ 17.6 µM) | 10 µg/mL (≈ 35.2 µM) | 5 µg/mL (≈ 17.6 µM) | 10 µg/mL (≈ 35.2 µM)

Row | SMILES | MBC [1, 3] | MBC [1, 4] | MBC [2, 5] | MBC [2, 6]
20 | COc1ccc2c(-c3ccc([N+](=O)[O-])o3)cc(C)[n+]([O-])c2c1 [Compound 23] | 5 µg/mL (≈ 16.7 µM) | 5 µg/mL (≈ 16.7 µM) | 5 µg/mL (≈ 16.7 µM) | 5 µg/mL (≈ 16.7 µM)
21 | CCc1cc(-c2ccc([N+](=O)[O-])o2)c2ccc(OC)cc2[n+]1[O-] [Compound 24] | > 10 µg/mL | 10 µg/mL (≈ 31.8 µM) | > 10 µg/mL | > 10 µg/mL
22 | COc1ccc2c(-c3ccc([N+](=O)[O-])o3)cc(C(=O)O)[n+]([O-])c2c1 [Compound 25] | 1 µg/mL (≈ 3.03 µM) | 5 µg/mL (≈ 15.1 µM) | 0.25 µg/mL (≈ 0.757 µM) | 0.5 µg/mL (≈ 1.51 µM)
23 | Cc1ccc2nc(C)cc(-c3ccc([N+](=O)[O-])o3)c2c1 [Compound 27] | 10 µg/mL (≈ 37.3 µM) | 10 µg/mL (≈ 37.3 µM) | 10 µg/mL (≈ 37.3 µM) | 10 µg/mL (≈ 37.3 µM)
24 | Cc1cc(-c2ccc([N+](=O)[O-])o2)c2ccc(Cl)cc2n1 [Compound 28] | > 10 µg/mL | > 10 µg/mL | > 10 µg/mL | > 10 µg/mL
25 | Cc1ccc2c(c1)c(-c1ccc([N+](=O)[O-])o1)cc(C)[n+]2[O-] [Compound 29] | 5 µg/mL (≈ 17.6 µM) | 5 µg/mL (≈ 17.6 µM) | 5 µg/mL (≈ 17.6 µM) | 5 µg/mL (≈ 17.6 µM)
26 | CCc1cc(-c2ccc([N+](=O)[O-])o2)c2ccccc2[n+]1[O-] [Compound 30] | 5 µg/mL (≈ 17.6 µM) | 10 µg/mL (≈ 35.2 µM) | 5 µg/mL (≈ 17.6 µM) | > 10 µg/mL
27 | CCc1ccc2nc(CC)cc(-c3ccc([N+](=O)[O-])o3)c2c1 [Compound 31] | > 10 µg/mL | > 10 µg/mL | > 10 µg/mL | > 10 µg/mL
28 | CCc1ccc2c(c1)c(-c1ccc([N+](=O)[O-])o1)cc(CC)[n+]2[O-] [Compound 32] | > 10 µg/mL | > 10 µg/mL | 1 µg/mL (≈ 3.2 µM) | > 10 µg/mL
29 | CC(=O)OCc1cc(-c2ccc([N+](=O)[O-])o2)c2ccccc2n1 [Compound 33] | > 10 µg/mL | > 10 µg/mL | > 10 µg/mL | > 10 µg/mL
30 | COc1cc2nc(C)cc(-c3ccc([N+](=O)[O-])o3)c2cc1N [Compound 34] | 5 µg/mL (≈ 16.7 µM) | 5 µg/mL (≈ 16.7 µM) | 0.25 µg/mL (≈ 0.835 µM) | 1 µg/mL (≈ 3.34 µM)
31 | Cc1cc(-c2ccc([N+](=O)[O-])o2)c2ccc(N)c(C)c2n1 [Compound 35] | 5 µg/mL (≈ 17.6 µM) | 5 µg/mL (≈ 17.6 µM) | 5 µg/mL (≈ 17.6 µM) | 10 µg/mL (≈ 35.3 µM)
32 | CNN=Cc1cc(-c2ccc([N+](=O)[O-])o2)c2ccccc2n1 [Compound 36] | > 10 µg/mL | 5 µg/mL (≈ 16.9 µM) | 5 µg/mL (≈ 16.9 µM) | 5 µg/mL (≈ 16.9 µM)
33 | COc1cc2nc(C)cc(-c3ccc([N+](=O)[O-])o3)c2cc1OC [Compound 37] | 10 µg/mL (≈ 31.8 µM) | 5 µg/mL (≈ 15.9 µM) | 5 µg/mL (≈ 15.9 µM) | 10 µg/mL (≈ 31.8 µM)
34 | CCOc1ccc2c(-c3ccc([N+](=O)[O-])o3)cc(C=NO)nc2c1 [Compound 38] | 10 µg/mL (≈ 30.6 µM) | 5 µg/mL (≈ 15.3 µM) | 5 µg/mL (≈ 15.3 µM) | 10 µg/mL (≈ 30.6 µM)
35 | COc1cc2c(-c3ccc([N+](=O)[O-])o3)cc(C)[n+]([O-])c2cc1OC [Compound 39] | 10 µg/mL (≈ 30.3 µM) | 0.5 µg/mL (≈ 1.51 µM) | 0.25 µg/mL (≈ 0.757 µM) | 1 µg/mL (≈ 3.03 µM)
36 | CCc1cc(-c2ccc([N+](=O)[O-])o2)c2cc(C)c(C)cc2[n+]1[O-] [Compound 40] | 5 µg/mL (≈ 16 µM) | 5 µg/mL (≈ 16 µM) | 5 µg/mL (≈ 16 µM) | 10 µg/mL (≈ 32 µM)
37 | O=[N+]([O-])c1ccc(-c2cc[n+]([O-])c3ccccc23)o1 [Compound 41] | 10 µg/mL (≈ 39 µM) | 5 µg/mL (≈ 19.5 µM) | 5 µg/mL (≈ 19.5 µM) | 10 µg/mL (≈ 39 µM)
38 | CCCOc1ccc2c(-c3ccc([N+](=O)[O-])o3)cc(C)[n+]([O-])c2c1 [Compound 42] | 10 µg/mL (≈ 30.5 µM) | 5 µg/mL (≈ 15.2 µM) | 5 µg/mL (≈ 15.2 µM) | 5 µg/mL (≈ 15.2 µM)
